Reference: patent US7776868B2, “Substituted bicyclic and tricyclic thieno[2,3-d]pyrimidines as A2A adenosine receptor antagonists” (Gilead Palo Alto, Inc., priority 2006, dated 2010)

Biological target: A2A adenosine receptor (UniProt P29274)
Assay: A2A radioligand competitive binding assay (3H-MSX-2 displacement)
Set-up: species or system human
Conditions: competitive binding vs 2 nM 3H-MSX-2, 15 ug A2A membrane, 23° C., 2 hours
Text: A tritiated adenosine A2A antagonist, 3-(3-hydroxypropyl)-7-methyl-8-(m-methoxystyryl)-1-propargylxanthine, (3H-MSX-2, specific activity: 80 Ci/mmol), was purchased from American Radiolabeled Chemicals, Inc (St. Louis, Mo.). A tritiated adenosine A1 antagonist, 1,3-Dipropyl-8-cyclopentylxanthine ([^3H]DPCPX, specific activity: 120 Ci/mmol) was purchased from Perkin Elmer (Boston, Mass.). A tritiated adenosine A2B antagonist, 4-(2-[7-amino-2-(2-furyl) [1,2,4]triazolo[2,3-a][1,3,5]triazin-5-ylamino]ethyl)phenol ([^3H]ZM241385 specific activity: 27.4 Ci/mmol) was purchased from American Radiolabeled Chemicals, Inc (St. Louis, Mo.). Adenosine Deaminase (ADA) was purchased from Roche Molecular Biochemicals (Nutley, N.J.). GTP was purchased from Sigma. Concentrated stock solution (10 mM) of compounds was dissolved in dimethylsulfoxide (DMSO), stored at −20° C., and diluted in Tris-EDTA buffer (50 mM Tris and 1 mM EDTA, 10 mM MgCl2, pH 7.4) for use in experiments. The final content of dimethylsulfoxide in Tris-EDTA buffer during experiments was not more than 1%. Male Sprague Dawley rats, weighted 250-400 g, 8-10 weeks old, were purchased from Charles River Labs (Wilmington, Mass.).
HEK293 (Human Embryonic Kidney 293) cells stably expressing human A2A adenosine receptor or human A2B adenosine receptor were maintained in DMEM supplemented with 10% fetal bovine serum, 2 mM L-glutamine, 100 IU/ml penicillin, 50 μg/ml streptomycin and 2 μg/ml puromycin. CHO (Chinese Hamster Ovary) cells stably expressing human A1 adenosine receptor or human A3 adenosine receptor were maintained in F12K medium supplemented with 10% fetal bovine serum, 2 mM L-glutamine, 100 IU penicillin, 50 μg/ml streptomycin and 8 μg/ml puromycin. PC12 (rat pheochromocytoma) cells were cultured in F12K medium supplemented with 10% horse serum and 2.5% fetal bovine serum, 2 mM L-glutamine, 100 IU/ml penicillin, and 50 μg/ml streptomycin. All cells were maintained at 37° C. in a humidified 5% CO2/95% air incubator and recultivated 2 times per week.
Cultured cells in 150 mm^2 dishes were washed once with PBS, detached by scrapping, collected with buffer A (10 mM HEPES, 10 mM EDTA, pH 7.4) containing protease inhibitor cocktail. Cells were then homogenized by a handheld homogenizer at a speed of 4.5 for 1 min. The homogenate was centrifuged by a Beckman ultracentrifuge at a speed of 29,000×g for 15 min. The pellets were resuspended in buffer HE (10 mM HEPES, 1 mM EDTA, pH 7.4, with protease inhibitor cocktail), centrifuged again at 29,000×g for 15 min. The crude membrane was resuspended using buffer HE, and protein concentration was measured by the method of Lowery with BSA as standard. Similar procedures were used for membrane preparation for fresh rat tissues. All experimental procedures were done at 4° C. Membranes were aliquot and kept at −80° C.
The binding assays utilized 15 ug of A2A membrane (human recombinant A2A membrane, rat striatal membrane, or PC 12 cell membrane) that had been treated with adenosine deaminase and 50 mM Tris-EDTA buffer (pH=7.4) followed by mixing 2 μL of serially diluted DMSO stock solution of the compounds of this invention at concentrations ranging from 10 μM to 0.1 nM or the control received 2 μL of DMSO alone, then the tritiated antagonist 3-(3-hydroxypropyl)-7-methyl-8-(m-methoxystyryl)-1-propargylxanthine (3H-MSX-2) in Tris-EDTA buffer (50 mM Tris, 1 mM EDTA, 10 mM MgCl2, pH of 7.4) was added to achieve a final concentration of 2 nM. After incubation at 23° C. for 2 hours, the solutions were filtered using a membrane harvester with multiple washing of the membranes (3×). The filter plates were counted in scintillation cocktail affording the amount of displacement ^3H-MSX-2 by the competitive binding compositions of this invention. Radioligand binding data was analyzed using GraphPad Prism version 4.0 (San Diego, Calif.). […]

Row | Ki | Compound
1 | 33 nM | CCn1c(=O)[nH]c2sc(/C=C/c3cccnc3)c(C)c2c1=O [XII, 6-((1E)-2-(3-pyridyl)vinyl)-3-ethyl-5-methyl-1,3-dihydrothiopheno[2,3-d]pyrimidine-2,4-dione]
2 | 75 nM | CCn1c(=O)[nH]c2sc(/C=C/c3ccc(OC)c(OC)c3)c(C)c2c1=O [X, 6-[(1E)-2-(3,4-dimethoxyphenyl)vinyl]-3-ethyl-5-methyl-1,3-dihydrothiopheno[2,3-d]pyrimidine-2,4-dione]
3 | 189 nM | CCn1c(=O)[nH]c2sc(/C=C/c3ccc(F)cc3)c(C)c2c1=O [IV, 6-[(1E)-2-(4-fluorophenyl)vinyl]-3-ethyl-5-methyl-1,3-dihydrothiopheno[2,3-d]pyrimidine-2,4-dione]
4 | 182 nM | CCn1c(=O)[nH]c2sc(/C=C/c3ccc(C)cc3)c(C)c2c1=O [XIII, 6-[(1E)-2-(4-methylphenyl)vinyl]-3-ethyl-5-methyl-1,3-dihydrothiopheno[2,3-d]pyrimidine-2,4-dione]
5 | 866 nM | CCn1c(=O)c2c(C)c(/C=C/c3ccc(OC)c(OC)c3)sc2n(COCc2ccccc2)c1=O [II, 6-[(1E)-2-(3,4-dimethoxyphenyl)vinyl]-3-ethyl-5-methyl-1-[(phenylmethoxy)methyl]-1,3-dihydrothiopheno[2,3-d]pyrimidine-2,4-dione]
6 | 38 nM | CCn1c(=O)[nH]c2sc(/C=C/c3ccccc3OC)c(C)c2c1=O [XVII, 6-[(1E)-2-(2-methoxyphenyl)vinyl]-3-ethyl-5-methyl-1,3-dihydrothiopheno[2,3-d]pyrimidine-2,4-dione]
7 | 390 nM | C#CCn1c(=O)c2c(C)c(/C=C/c3ccccc3)sc2n(C)c1=O [V, 6-((1E)-2-phenylvinyl)-1,5-dimethyl-3-prop-2-ynyl-1,3-dihydrothiopheno[2,3-d]pyrimidine-2,4-dione]
8 | 119 nM | CCn1c(=O)[nH]c2sc(/C=C/c3ccc(OC)cc3)c(C)c2c1=O [XIV, 6-[(1E)-2-(4-methoxyphenyl)vinyl]-3-ethyl-5-methyl-1,3-dihydrothiopheno[2,3-d]pyrimidine-2,4-dione]
9 | 277 nM | COc1ccc(/C=C/c2sc3[nH]c(=O)n(CC(C)C)c(=O)c3c2C)cc1OC [XI, 6-[(1E)-2-(3,4-dimethoxyphenyl)vinyl]-5-methyl-3-(2-methylpropyl)-1,3-dihydrothiopheno[2,3-d]pyrimidine-2,4-dione]
10 | 674 nM | CCn1c(=O)[nH]c2sc(/C=C/c3ccc(C(F)(F)F)cc3)c(C)c2c1=O [IX, 6-{(1E)-2-[4-(trifluoromethyl)phenyl]vinyl}-3-ethyl-5-methyl-1,3-dihydrothiopheno[2,3-d]pyrimidine-2,4-dione]
11 | 242 nM | CCn1c(=O)[nH]c2sc(/C=C/c3cccc(F)c3)c(C)c2c1=O [VI, 6-[(1E)-2-(3-fluorophenyl)vinyl]-3-ethyl-5-methyl-1,3-dihydrothiopheno[2,3-d]pyrimidine-2,4-dione]
12 | 96 nM | CCn1c(=O)[nH]c2sc(/C=C/c3cc(OC)cc(OC)c3)c(C)c2c1=O [XVIII, 6-[(1E)-2-(3,5-dimethoxyphenyl)vinyl]-3-ethyl-5-methyl-1,3-dihydrothiopheno[2,3-d]pyrimidine-2,4-dione]
13 | 104 nM | CCn1c(=O)[nH]c2sc(/C=C/c3cccc(OC)c3)c(C)c2c1=O [XVI, 6-[(1E)-2-(3-methoxyphenyl)vinyl]-3-ethyl-5-methyl-1,3-dihydrothiopheno[2,3-d]pyrimidine-2,4-dione]
14 | 171 nM | CCn1c(=O)[nH]c2sc(/C=C/c3ccccc3)c(C)c2c1=O [III, 6-((1E)-2-phenylvinyl)-3-ethyl-5-methyl-1,3-dihydrothiopheno[2,3-d]pyrimidine-2,4-dione]
15 | 220 nM | CCn1c(=O)c2c(C)c(/C=C/c3ccc(OC)c(OC)c3)sc2n(C)c1=O [I, 6-[(1E)-2-(3,4-dimethoxyphenyl)vinyl]-3-ethyl-1,5-dimethyl-1,3-dihydrothiopheno[2,3-d]pyrimidine-2,4-dione]
16 | 320 nM | CCn1c(=O)[nH]c2sc(/C=C/c3ccc(Cl)cc3)c(C)c2c1=O [VII, 6-[(1E)-2-(4-chlorophenyl)vinyl]-3-ethyl-5-methyl-1,3-dihydrothiopheno[2,3-d]pyrimidine-2,4-dione]
17 | 776 nM | CCn1c(=O)[nH]c2sc(/C=C/c3ccc(-c4ccccc4)cc3)c(C)c2c1=O [VIII, 6-[(1E)-2-(4-phenylphenyl)vinyl]-3-ethyl-5-methyl-1,3-dihydrothiopheno[2,3-d]pyrimidine-2,4-dione]
18 | 170 nM | CCn1c(=O)[nH]c2sc(/C=C/c3ccccc3F)c(C)c2c1=O [XV, 6-[(1E)-2-(2-fluorophenyl)vinyl]-3-ethyl-5-methyl-1,3-dihydrothiopheno[2,3-d]pyrimidine-2,4-dione]
